Structures can show the parent of a compound that is named as a salt.

One assay concerns SirT1 levels in N2a-E4 cells. The experiment in a line: SirT1 levels by AlphaLISA in ApoE4-transfected N2a cells. Format: cell-based, murine.
Conditions: not given
How it is done:
Prompted by the emerging importance of the associations between ApoE4 and the expression/protein levels of SirT1, high-throughput screening (HTS) of the UCLA compound library was performed using AlphaLISA to detect SirT1 levels in murine neuroblastoma cells stably transfected with ApoE4 (E4-N2a) to identify SirT1 enhancers. […] In the in vivo study, mice were treated orally at 40 mkd (20 mg/kg BID) for 56 days and underwent assessment of cognition in the Novel Object Recognition (NOR) testing paradigm. […] The performance of A03-treated E4-AD mice (FIG. 5A) improved to level of non-transgenic vehicle-treated mice.
On to `N[C@@H](CO)C(=O)NCCc1ccc(Cl)cc1` [MP-107], for which the “SirT1 SOμM” value is given as “A, A (A >20%)” and the “SirT1 SμM” value was “A, A (A >20%)”.
`C[C@H](N)C(=O)NC(C)(C)Cc1ccc(F)cc1.Cl` [MP-83, (S)-2-amino-N-(1-(4-fluorophenyl)-2-methylpropan-2-yl)propanamide hydrochloride]: the “SirT1 SOμM” value is listed as “A (A >20%)” and the “SirT1 SμM” value is recorded as “a (a <250%)”.
With `C[C@H](N)C(=O)NC(C)(Cc1cc(F)cc(F)c1)Cc1cc(F)cc(F)c1` [MP-106, (S)-2-amino-N-(1,3-bis(3,5-difluorophenyl)-2-methylpropan-2-yl)propanamide hydrochloride], the “SirT1 SOμM” value is given as “a, a (a <250%)” and the “SirT1 SμM” value is “a, a (a <250%)”.
Turning to `C[C@H](NC(=O)OC(C)(C)C)C(=O)OC(C)(C)Cc1ccc(C(F)(F)F)cc1` [MP-75, 2-methyl-1-(4-(trifluoromethyl)phenyl)propan-2-yl 2-((tert-butoxycarbonyl)amino)propanoate], the “SirT1 SOμM” value is “a, a (a <250%)” and the “SirT1 SμM” value is “a, a (a <250%)”.
Consider `C[C@H](NC(=O)OC(C)(C)C)C(=O)O[C@H]1CCC[C@@H]1c1ccc(Cl)cc1` (single isomer, unassigned) [MP-88], for which the “SirT1 SOμM” value is on record as “a, a (a <250%)” and the “SirT1 SμM” value was “a, a (a <250%)”.
Consider `C[C@H](N)C(=O)NC(C)(C)Cc1ccncc1.Cl` [MP-100, (S)-2-amino-N-(2-methyl-1-(pyridin-4-yl)propan-2-yl)propanamide hydrochloride], for which the “SirT1 SOμM” value is “A, A (A >20%)” and the “SirT1 SμM” value is given as “A, A (A >20%)”.
For the molecule `C[C@H](NC(=O)OC(C)(C)C)C(=O)N[C@H]1CCC[C@H]1c1ccc(Cl)cc1` (mixture of isomers) [MP-95, tert-butyl-((S)-1-(((±)-cis-2-(4-chlorophenyl)cyclopentyl)amino)-1-oxopropan-2-yl)carbamate], the “SirT1 SOμM” value is listed as “a, a (a <250%)” and the “SirT1 SμM” value is reported as “a, a (a <250%)”.
On to `C[C@H](N)C(=O)N[C@H]1CCC[C@@H]1c1ccc(Cl)cc1.Cl` [MP-86, (S)-2-amino-N-((1S,2R)-2-(4-chlorophenyl)cyclopentyl)propanamide], for which the “SirT1 SOμM” value was “B (B >50%)” and the “SirT1 SμM” value was “A (A >20%)”.
As for `C[C@H](NC(=O)OC(C)(C)C)C(=O)N[C@H]1CCC[C@@H]1c1ccc(Cl)cc1` [MP-85, tert-butyl ((S)-1-(((1S,2R)-2-(4-chlorophenyl)cyclopentyl)amino)-1-oxopropan-2-yl)carbamate], the “SirT1 SOμM” value is “a, a (a <250%)” and the “SirT1 SμM” value is listed as “a, a (a <250%)”.
Regarding `Cl.N[C@H]1Cc2cc(Cl)ccc2CNC1=O` [MP-109, (S)-4-amino-7-chloro-4,5-dihydro-1H-benzo[c]azepin-3(2H)-one], the “SirT1 SOμM” value was “B (B >50%)” and the “SirT1 SμM” value was “A (A >20%)”.
Turning to `C[C@H](N)C(=O)N[C@H]1Cc2ccccc2CNC1=O.Cl` [MP-105, (S)-2-amino-N—((S)-3-oxo-2,3,4,5-tetrahydro-1H-benzo[c]azepin-4-yl)propanamide hydrochloride], the “SirT1 SOμM” value is “a, a (a <250%)” and the “SirT1 SμM” value is on record as “a, a (a <250%)”.
Consider `C[C@H](NC(=O)OC(C)(C)C)C(=O)O[C@H]1CCC[C@H]1c1ccc(Cl)cc1` (single isomer, unassigned) [MP-92], for which the “SirT1 SOμM” value is recorded as “a, a (a <250%)” and the “SirT1 SμM” value is recorded as “a, a (a <250%)”.
Regarding `C[C@H](NC(=O)OC(C)(C)C)C(=O)O[C@H]1CCC[C@H]1c1ccc(Cl)cc1` (single isomer, unassigned) [MP-91], the “SirT1 SOμM” value is “a, a (a <250%)” and the “SirT1 SμM” value was “a, a (a <250%)”.
Take `C[C@H](N)C(=O)O[C@@H]1CCC[C@H]1c1ccc(Cl)cc1.Cl` (single isomer, unassigned) [MP-90]: the “SirT1 SOμM” value is reported as “a, a (a <250%)” and the “SirT1 SμM” value is given as “a, a (a <250%)”.
In the case of `C[C@H](N)C(=O)N[C@H]1Cc2ccccc2CN(C)C1=O.Cl` [MP-104, (S)-2-amino-N—((S)-2-methyl-3-oxo-2,3,4,5-tetrahydro-1H-benzo[c]azepin-4-yl)propanamide hydrochloride], the “SirT1 SOμM” value is reported as “A (A >20%)” and the “SirT1 SμM” value is recorded as “a (a <250%)”.
The corresponding values for `C[C@H](N)C(=O)NC1CCc2ccccc2NC1=O` (stereo partly drawn) [MP-84, (2S)-2-amino-N-(2-oxo-2,3,4,5-tetrahydro-1H-benzo[b]azepin-3-yl)propanamide hydrochloride] are “A (A >20%)” and “a (a <250%)”.
As to `C[C@H](NC(=O)OC(C)(C)C)C(=O)N[C@@H]1CCC[C@@H]1c1ccc(Cl)cc1` (single isomer, unassigned) [MP-96], the “SirT1 SOμM” value is on record as “a, a (a <250%)” and the “SirT1 SμM” value is reported as “a, a (a <250%)”.
In the case of `CN1Cc2ccccc2C[C@H](N)C1=O` [MP-108], the “SirT1 SOμM” value is reported as “A, A (A >20%)” and the “SirT1 SμM” value is recorded as “A, A (A >20%)”.
Take `C[C@H](N)C(=O)NC(C)(C)c1ccc(Cl)cc1.Cl` [MP-101, (S)-2-amino-N-(2-(4-chlorophenyl)propan-2-yl)propanamide hydrochloride]: the “SirT1 SOμM” value is reported as “B (B >50%)” and the “SirT1 SμM” value is on record as “a (a <250%)”.
On the same counts, the results for `N[C@H]1Cc2ccccc2CNC1=O` [MP-71, (S)-4-amino-4,5-dihydro-1H-benzo[c]azepin-3(2H)-one hydrochloride] are “C (C = 100% increase versus control)” and “B (B >50%)”.
`C[C@H](NC(=O)OC(C)(C)C)C(=O)O[C@H]1CCC[C@@H]1c1ccc(Cl)cc1` (single isomer, unassigned) [MP-87]: the “SirT1 SOμM” value is recorded as “a, a (a <250%)” and the “SirT1 SμM” value is “a, a (a <250%)”.
For `C[C@H](N)C(=O)O[C@@H]1CCC[C@H]1c1ccc(Cl)cc1.Cl` [MP-89, (S)-(1R,2S)-2-(4-chlorophenyl)cyclopentyl 2-aminopropanoate hydrochloride], the “SirT1 SOμM” value was “A (A >20%)” and the “SirT1 SμM” value is given as “a (a <250%)”.
With `C[C@H](NC(=O)OC(C)(C)C)C(=O)N(C)[C@H]1CCC(c2ccc(Cl)c(Cl)c2)c2ccccc21` (stereo in doubt) [MP-80, tert-butyl ((S)-1-(((1S,4R)-4-(3,4-dichlorophenyl)-1,2,3,4-tetrahydronaphthalen-1-yl)(methyl)amino)-1-oxopropan-2-yl)carbamate], the “SirT1 SOμM” value is reported as “a, a (a <250%)” and the “SirT1 SμM” value is “a, a (a <250%)”.
For `C[C@H](Nc1ccccc1-c1ccccc1)C(N)=O` [MP-60], the “SirT1 SOμM” value was “B (B >50%)” and the “SirT1 SμM” value is listed as “A (A >20%)”.
As for `C[C@H](N)C(=O)N[C@H]1CCCCNC1=O.Cl` (racemic) [MP-103, (S)-2-amino-N—((S)-2-oxoazepan-3-yl)propanamide hydrochloride], the “SirT1 SOμM” value is recorded as “a, a (a <250%)” and the “SirT1 SμM” value is listed as “a, a (a <250%)”.

Staying with this assay, now noted: N2a-E4 cells.
For `Cl.N[C@H]1Cc2cc(Cl)ccc2CNC1=O` [MP-109, (S)-4-amino-7-chloro-4,5-dihydro-1H-benzo[c]azepin-3(2H)-one], the SirT1 increase result was “increases SirT1”.
Same read-out and setting: the result for `CC12CC3CC(C)(C1)CC(N)(C3)C2` [memantine, reference compound] reads “did not increase SirT1”; that for `CNCCC(Oc1ccc(C(F)(F)F)cc1)c1ccccc1` (centres unmarked) [fluoxetine, reference compound], “did not increase SirT1”.

For the origin of these results see US20240083839A1, “COMPOSITIONS AND METHODS FOR TREATING NEURODEGENERATIVE DISEASES AND DISORDERS” (The Regents of the University of California, priority 2020, published 2024).
